Patent publication US12064405B2, “Immunosuppressant comprising TSAHC or a pharmaceutically acceptable salts thereof as an active ingredient” (Seoul National University R&DB Foundation, priority 2020, dated 2024)

Legend:
cells expressing TM4SF5 = test: Activation of glycolytic function (acidification of extracellular solution, Seahorse); type: cell-based
Description: The cells expressing TM4SF5 were treated with vehicle, a negative control compound (4′-methoxy-4-dihydroxychalcone) or TSAHC. Then, the degree of activation of glycolytic function was measured by measuring the acidification of the extracellular solution due to glycolysis while additionally adding glucose at various concentrations using Seahorse equipment.

[1] = tested on: cell lines expressing TM4SF5; test: qRT-PCR of M1-type macrophage chemokines/cytokines CCL2, TNF-α, IL-6, IL-1β; type: cell-based; details: cell line expressing TM4SF5, LPS and IFN-γ
Description: Cell lines not expressing TM4SF5 (EV) or cell lines expressing thereof (TM4SF5) were treated (+) or not treated with LPS and IFN-γ, treated (+) or not treated with 2-DG (2-Deoxy-D-glucose) as a drug for inhibiting glycolysis at a given concentration, and additionally treated (+) or not treated with TSAHC (−). Then, the mRNA expression levels of CCL2, TNF-α, IL-6, and IL-1β, the chemokines/cytokines indicating the activation of M1-type macrophages, were confirmed by qRT-PCR.

[2] = tested on: M0 THP-1 cells expressing TM4SF5; test: Glycolytic Proton Efflux Rate (GlycoPER) in M0 THP-1 cells treated with CCL20 or CXCL10; type: cell-based, human; details: 300 ng/ml for 24 hours, FIG. 9
Description: THP-1 cells infected with a lentivirus with an empty vector not expressing TM4SF5 or a lentivirus expressing TM4SF5 were treated with 100 nM phorbol-12-myristate-13-acetate (PMA) for 24 hours to differentiate into M0 cells (experimental condition to confirm the not repetitive effects of cytokines/chemokines in the early stage by representing the case before differentiation into M1 type), and then, 300 ng/ml of CCL20 or CXCL10 was treated for 24 hours, and basal and compensatory Glycolytic Proton Efflux Rate (GlycoPER) were measured using a Seahorse XFp device.

[3] = tested on: M1 and M2 type macrophages differentiated from THP-1 cells; test: qRT-PCR of M1 or M2 type macrophage markers in macrophages differentiated from THP-1 cells; type: cell-based, human; details: 100 nM for 24 hours; for mRNA levels of M1 type macrophage markers (TNFα, IL1β, IL6) compared to the control group: M1 type macrophages, FIG. 12A
Description: M1 and M2 type macrophages (MΦ) differentiated from THP-1 cells were treated with CCL20 or CXCL10 at a concentration of 100 nM for 24 hours, and then the mRNA expression levels of the markers indicating the activity as M1 or M2 type macrophages were confirmed by qRT-PCR. For M1 type macrophages, the mRNA expression levels of TNFα, IL1β and IL6 were measured, and for M2 type macrophages, the mRNA expression levels of CD206 and FN1 were measured.

Ccl20 = test: CCl4-induced liver damage, inflammation and fibrosis with suppression of Ccl20 expression by siRNA; type: in vivo, mouse
Description: 12-week-old normal WT or Tm4sf5^−/− KO mice (5 per group) were intraperitoneally injected with CCl4 (TRC, Canada, C176905, 10 mg/kg/40% olive oil) twice a week for 4 weeks. Ccl20 siRNA [sense 5′-GGAGGAAAUGAUCACAGCUtt-3′ (SEQ. ID. NO: 101), antisense 5′-AGCUGUGAUCAUUUCCUCCtt-3 (SEQ. ID. NO: 102) was purchased from Ambion (Austin Texas, USA) and diluted to an appropriate concentration in PBS. Ccl20 siRNA (1.66 mg/kg) or vehicle was intravenously injected into the mice twice a week. After 4 weeks, liver and blood samples of the animals were obtained.
As shown in the scheme of FIG. 5, 12-week-old normal C57BL/6 mice were intraperitoneally injected with CCl4 (40% in olive oil) at a concentration of 10 mg/kg body weight twice a week for 26 days. At the same time, siRNA against CCL20 (Amibon, Austin Texas, USA, Assay ID 72932, sense 5′-GGAGGAAAUGAUCACAGCUtt-3′, antisense 5′-AGCUGUGAUCAUUUCCUCCtt-3′) dissolved in PBS at a concentration of 1.66 mg/kg was intravenously injected for 26 days before the CCl4 injection. After 26 days of the injection, the mice were sacrificed, and the liver tissue was obtained. Then, the disease state of the liver was investigated by performing immunohistochemistry (IHC), Masson's trichrome staining and qRT-PCR.
Specifically, for H&E staining, the tissue was placed in a 60° C. oven for about 20 minutes to separate the tissue from paraffin, and when the paraffin melted, the tissue was immersed in xylene three times for 5 minutes each. The tissue was put into 100%→90%→80%→70% ethanol→distilled water for 3 minutes each in the order, and then immersed in a hematoxylin solution for 5 minutes to react. After sufficiently washing the tissue with tap water, it was reacted with an eosin solution for about 20 minutes, and washed again with tap water. Then, the tissue was immersed in 70%→80%→90%→100% ethanol→xylene for 3 minutes each in the order for dehydration, followed by mounting on a slide.
Paraffin blocks and liver tissue sections for immunohistochemical staining were obtained from Abion Inc. (Seoul, Korea). As antibodies, F4/80 (Cell Signaling Technology), Ccl20, laminin γ2 (Santa Cruz Biotechnology) were used.
For Masson's trichrome staining, the tissue was first separated from paraffin and then reacted in a preheated bouin's solution for 1 hour. After rinsing the tissue with tap water until the solution was completely drained, it was reacted in a hematoxylin solution for 10 minutes, and then rinsed again with tap water. Then, the tissue was reacted in a biebrich scarlet-acid fuchsin solution for 5 minutes, immersed in distilled water, and reacted in a phosphotungstic/phosphomolybdic acid solution for 15 minutes. The tissue was immersed in an Aniline blue solution for 10 minutes and 1% acetic acid for 1 minute for dehydration. The tissue was immersed in xylene, followed by mounting on a slide.

4′-methoxy-4-dihydroxychalcone [control compound, reference compound]
glycolysis of the cells not expressing TM4SF5 (EV) (cells expressing TM4SF5; EV cell line, FIG. 8B): not changed
glycolytic function of cells expressing TM4SF5 (cells expressing TM4SF5; various concentrations of glucose added, FIG. 8C): not changed

O=CC[C@@H](O)[C@H](O)[C@H](O)CO [2-DG, 2-Deoxy-D-glucose, reference compound]
CCL2 mRNA expression level ([1]; FIG. 11A): decreased
TNF-α mRNA expression level ([1]; FIG. 11B): decreased
IL-6 mRNA expression level ([1]; FIG. 11C): decreased
IL-1β mRNA expression level ([1]; FIG. 11D): decreased

CCL20: chemokine used to treat THP-1-derived macrophages
glycolytic function (basal and compensatory GlycoPER) versus vehicle-treated control group [2]: higher
mRNA levels of M1 type macrophage markers (TNFα, IL1β, IL6) compared to the control group [3]: decreased
mRNA levels of M2 type macrophage markers (CD206, FN1) ([3]; M2 type macrophages, CCL20 alone or together with CXCL10, FIG. 12B): significantly increased

CXCL10: chemokine used to treat THP-1-derived macrophages
glycolytic function (basal and compensatory GlycoPER) versus vehicle-treated control group [2]: higher
mRNA levels of M1 type macrophage markers (TNFα, IL1β, IL6) compared to the control group [3]: decreased

Ccl20 siRNA: siRNA against CCL20 (Ambion), sense 5′-GGAGGAAAUGAUCACAGCUtt-3′, antisense 5′-AGCUGUGAUCAUUUCCUCCtt-3′ (sense GGAGGAAAUGAUCACAGCUTT; antisense AGCUGUGAUCAUUUCCUCCTT; chemistry not given here)
collagen type 1 α1 chain (Col1α1) mRNA level in liver (Ccl20; during CCl4 treatment, FIG. 6A): decreased
Ccl20 mRNA level in liver (Ccl20; during CCl4 treatment, FIG. 6B): decreased
F4/80 mRNA level in liver (Ccl20; during CCl4 treatment, FIG. 6C): decreased
α-smooth muscle actin (Sma) mRNA level in liver (Ccl20; during CCl4 treatment, FIG. 6D): decreased
effect of CCl4 treatment (liver tissue damage, collagen accumulation, Ccl20 and Cxcl10 accumulation, F4/80 macrophage infiltration, laminin γ2 accumulation) (Ccl20; siRNA 1.66 mg/kg intravenously, CCl4 10 mg/kg twice a week, 26 days, FIG. 5): significantly inhibited
